Patent US3957999A, “Anilinobenzothiazoles as antidepressants” (The Boots Company, priority 1974, dated 1976)

Experiments:
Format in all cases: in vivo
[1] = tested on: cats; test: amphetamine-like stereotyped reactions in cats (amphetamine-like CNS stimulant activity); conditions: for amphetamine-like stereotyped reactions: cats, comparative tests at similar dosage levels
[2] = tested on: rats; test: teratogenicity in rats; conditions: similar dosage levels
[3] = tested on: rabbits; test: teratogenicity in rabbits; conditions: similar dosage levels
[4] = tested on: reserpine-induced hypothermia; test: reversal of reserpine-induced hypothermia test in mice (antireserpine activity); conditions: Mus musculus, Shadbolt et al., read-out: ED50 (median effective dose)
Experimental: A test to evaluate this property was carried out with the compounds of formula I (R = H or CH3 O). The test was carried out in mice as described by Shadbolt et al. in J. Med. Chem. vol. 14 p.837 (1971), and the following results were obtained.

Structure (SMILES)	amphetamine-like CNS stimulant activity ([1]; as shown by stereotyped reactions in cats)	amphetamine-like stereotyped reactions [1]	teratogenicity [2]	teratogenicity [3]	ED50 [4]
CCN(CC)CCOc1ccc(Nc2nc3ccccc3s2)cc1 [2-[4-(2-diethylaminoethoxy)anilino]benzothiazole]	undesirably high level of amphetamine-like CNS stimulant activity	produces amphetaminelike stereotyped reactions	–	–	–
c1ccc2sc(Nc3ccc(OCCN4CCCCC4)cc3)nc2c1 [2-[4-(2-piperidin-1-ylethoxy)anilino]benzothiazole]	–	causes amphetamine-like stereotyped reactions	–	–	–
c1ccc2oc(Nc3ccc(OCCN4CCCC4)cc3)nc2c1 [2-[4-(2-pyrrolidin-1-ylethoxy)anilino]benzoxazole]	–	–	markedly teratogenic	markedly teratogenic	–
c1ccc2sc(Nc3ccc(OCCN4CCCC4)cc3)nc2c1 [compound I, R=hydrogen, 2-[4-(2-pyrrolidin-1-ylethoxy)anilino]benzothiazole]	–	–	no evidence of teratogenicity	–	3.7 mg/kg
COc1ccc2sc(Nc3ccc(OCCN4CCCC4)cc3)nc2c1 [compound I, R=methoxy, 5-methoxy-2-[4-(2-pyrrolidin-1-ylethoxy)anilino]benzothiazole]	–	–	no evidence of teratogenicity	no evidence of teratogenicity	3.1 mg/kg
